Our source for the activity change, negative = cytotoxicity values is PubChem BioAssay AID1259333 (Broad Institute, 2017).

A short description of the experiment: cell cytotoxicity, dose response, cytotoxicity control, CellTiter-Glo (AID 1259333).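 Note: 0% = vehicle neutral controls and -100% = reference inhibitor positive controls.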 The note with it: cytotoxicity, CellTiter-Glo ATP luminescence.

The source made the active and inactive calls. The rule behind the calls is not given here; tested in parental BL2 cells.

Turning to `O=C1C=CC(=O)c2c(O)c(N3CCN(CCOCCO)CC3)c(Br)c(O)c21`, the activity change, negative = cytotoxicity (at 3.5 µM (top of the series)) is 104% (inactive).

For `NC(c1ccccc1)c1csc(NC(=O)Nc2cccc(C(F)(F)F)c2)n1` (stereo not drawn), the activity change, negative = cytotoxicity (at 10 µM (top of the series)) is -26.9% (inactive).

Turning to `O=C(Nc1ccccc1F)N1C[C@@H]2N[C@H](C1)C2c1ccc(/C=C/c2ccccc2)cc1` (stereo partly drawn), the activity change, negative = cytotoxicity (at 3 µM (top of the series)) is 21.6% (inactive).

Turning to `Oc1c(Cl)cc(Cl)cc1Sc1cc(Cl)cc(Cl)c1O`, for the setting “at 10 µM (top of the series)”, the activity change, negative = cytotoxicity is 11% (inactive).

As to `CC(=O)Nc1nc2nc(-c3ccccc3)cc(-c3ccccc3)n2n1`, the activity change, negative = cytotoxicity (at 10 µM (top of the series)) was 47.9% (inactive).

As for `CS(=O)(=O)c1ccc(C(=O)OCC(=O)NC(=O)C2CCCCC2)cc1[N+](=O)[O-]`, the activity change, negative = cytotoxicity (at 10 µM (top of the series)) is 42.9% (inactive).

For the compound `O=C(Cc1ccccc1)N1CC[C@@H]2[C@H]1c1cc(-c3cccc(F)c3)ccc1N[C@@H]2CO`, the activity change, negative = cytotoxicity (at 10 µM (top of the series)) is 8.92% (inactive).

On to `O=C1C(Br)=C(c2ccccc2)C(c2ccccc2)=C1c1ccccc1`, for which the activity change, negative = cytotoxicity (at 10 µM (top of the series)) was -18.2% (inactive).

Regarding `COc1ccc(CN(CCC(c2ccc(F)cc2)C2CCOC(C)(C)C2)C(=O)c2ccco2)cc1` (stereo not drawn), the activity change, negative = cytotoxicity (at 10 µM (top of the series)) is 263% (inactive).

Consider `O=C(COC(=O)c1ccccc1)c1ccc2c(c1)OCCO2`, for which the activity change, negative = cytotoxicity (at 10 µM (top of the series)) was 21.1% (inactive).

On to `Fc1ccccc1/C=C1\CCCC2=C1Nc1nnnn1C2c1ccccc1F` (stereo not drawn), for which, where the note is “at 10 µM (top of the series)”, the activity change, negative = cytotoxicity was 12.3% (inactive).

As to `c1cncc(C2=NCCC2)c1`, under “at 10 µM (top of the series)”, the activity change, negative = cytotoxicity is 36.6% (inactive).

For `CC(C)OC(=O)CC1C(=O)NCCN1C(=S)NC(=O)c1cccs1` (stereo not drawn), the activity change, negative = cytotoxicity (at 10 µM (top of the series)) is 19.9% (inactive).

In the case of `COc1ccc(-c2cnc3c(c2)C(=O)N([C@H](C)CO)C[C@@H](C)[C@@H](CN(C)C(=O)Nc2c(C)noc2C)O3)cc1`, where the note is “at 10 µM (top of the series)”, the activity change, negative = cytotoxicity was 49.3% (inactive).

In the case of `COc1cc2c(cc1OC)C(=O)C(Br)CC2` (stereo not drawn), the activity change, negative = cytotoxicity (at 10 µM (top of the series)) was 112% (inactive).

Take `Cn1cnc(S(=O)(=O)N2C[C@@H]3N[C@H](C2)C3c2ccc(-c3ccccc3F)cc2)c1` (stereo partly drawn): the activity change, negative = cytotoxicity (at 10 µM (top of the series)) is 36.7% (inactive).

Consider `O=C(C1CCOCC1)N1CC(=O)N2[C@H](C1)[C@H](c1ccc(C#CCc3ccccc3)cc1)[C@@H]2CO`, for which the activity change, negative = cytotoxicity (at 10 µM (top of the series)) was 95.5% (inactive).

On to `CC(=O)OCC(=O)C1(O)CCC2C3CCC4=CC(=O)CCC4(C)C3(Cl)C(O)CC21C` (stereo not drawn), for which the activity change, negative = cytotoxicity (at 10 µM (top of the series)) was 25.5% (inactive).

With `CCc1csc(N2[C@H](C#N)[C@H](c3ccc(C#Cc4ccc(F)cc4)cc3)[C@H]2CO)n1`, the activity change, negative = cytotoxicity (at 10 µM (top of the series)) is 30% (inactive).

`COc1ccc(C#Cc2ccc([C@H]3[C@H]4CN(C(=O)c5ccncc5)CCCCN4[C@H]3CO)cc2)cc1`: the activity change, negative = cytotoxicity (at 10 µM (top of the series)) was 30.7% (inactive).

As to `C[C@@H]1CN([C@@H](C)CO)C(=O)c2cc(C#CCc3ccccc3)cnc2O[C@@H]1CN(C)C(=O)C1CCOCC1`, where the note is “at 10 µM (top of the series)”, the activity change, negative = cytotoxicity was 5.87% (inactive).

For the compound `CC(C)Cc1ccc(C(C)/C=C2/CCC(CN3CCCCC3)C2=O)cc1` (stereo not drawn), the activity change, negative = cytotoxicity (at 10 µM (top of the series)) was 26.2% (inactive).

Regarding `CC(=O)O[C@@H]1C[C@@]2(C)[C@H](c3ccoc3)C[C@H]3O[C@]32[C@]2(C)C(=O)C(=O)C3C(C)(C)C(=O)C=C[C@]3(C)C12` (stereo partly drawn), the activity change, negative = cytotoxicity (at 10 µM (top of the series)) was 188% (inactive).

Regarding `COc1ccc(S(=O)(=O)Nc2ccc3c(c2)C(=O)N([C@H](C)CO)C[C@@H](C)[C@@H](CN(C)Cc2ccc(C(F)(F)F)cc2)OCCCC[C@@H](C)O3)cc1`, under “at 10 µM (top of the series)”, the activity change, negative = cytotoxicity is 4.86% (inactive).

On to `c1ccc(CCSc2nccn2-c2ccccc2)cc1`, for which the activity change, negative = cytotoxicity (at 10 µM (top of the series)) is 33.3% (inactive).

Take `Cc1ccccc1NC(=O)c1nc(S(C)(=O)=O)ncc1Cl`: the activity change, negative = cytotoxicity (at 3.5 µM (top of the series)) is 64.5% (inactive).

Turning to `O=C(NCc1ccccn1)C1CCCN(S(=O)(=O)c2ccccc2)C1` (stereo not drawn), the activity change, negative = cytotoxicity (at 10 µM (top of the series)) is 44.9% (inactive).

In the case of `O=C(COc1cccnc1[N+](=O)[O-])c1ccc(Cl)s1`, the activity change, negative = cytotoxicity (at 10 µM (top of the series)) is 33.6% (inactive).
